In patent US20230250066A1, “HERBICIDAL CINNOLINE DERIVATIVES” (SYNGENTA CROP PROTECTION AG, priority 2020, published 2023):

Key:
Format in all cases: in vivo
[1] = system: Amaranthus retoflexus (AMARE); test: Pre-emergence herbicidal test; conditions: 1000 g/ha, evaluated after 13 days
Setaria faberi (SETFA) [2] = test: Pre-emergence herbicidal test; conditions: 1000 g/ha, evaluated after 13 days
[3] = system: Echinochloa crus-galli (ECHCG); test: Pre-emergence herbicidal test; conditions: 1000 g/ha, evaluated after 13 days
[4] = system: Ipomoea hederacea (IPOHE); test: Pre-emergence herbicidal test; conditions: 1000 g/ha, evaluated after 13 days
[5] = system: Abutilon theophrasti (ABUTH); test: Pre-emergence herbicidal test; conditions: 1000 g/ha, evaluated after 13 days
Zea mays (ZEAMX) [6] = test: Pre-emergence herbicidal test; conditions: 1000 g/ha, evaluated after 13 days
[7] = system: Abutilon theophrasti (ABUTH); test: Post-emergence herbicidal test; conditions: 1000 g/ha unless otherwise stated, evaluated after 13 days
Summary of the method: (§1)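 Damage score (0–5; 5=81-100%, 1=10-20%, 0=0%) read 13 d after spraying. Spray: acetone/water 50:50 + 0.5% Tween 20, 1000 g/ha unless stated.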

[8] = system: Amaranthus retoflexus (AMARE); test: Post-emergence herbicidal test; conditions: 1000 g/ha unless otherwise stated, evaluated after 13 days
Summary of the method: as §1

[9] = system: Echinochloa crus-galli (ECHCG); test: Post-emergence herbicidal test; conditions: 1000 g/ha unless otherwise stated, evaluated after 13 days
Summary of the method: as §1

[10] = system: Ipomoea hederacea (IPOHE); test: Post-emergence herbicidal test; conditions: 1000 g/ha unless otherwise stated, evaluated after 13 days
Summary of the method: as §1

Setaria faberi (SETFA) [11] = test: Post-emergence herbicidal test; conditions: 1000 g/ha unless otherwise stated, evaluated after 13 days
Summary of the method: as §1

Zea mays (ZEAMX) [12] = test: Post-emergence herbicidal test; conditions: 1000 g/ha unless otherwise stated, evaluated after 13 days
Summary of the method: as §1

| Compound | percentage damage caused to the plant, five-point scale, AMARE [1] | percentage damage caused to the plant, five-point scale, SETFA (Setaria faberi (SETFA) [2]) | percentage damage caused to the plant, five-point scale, ECHCG [3] | percentage damage caused to the plant, five-point scale, IPOHE [4] | percentage damage caused to the plant, five-point scale, ABUTH [5] | percentage damage caused to the plant, five-point scale, ZEAMX (Zea mays (ZEAMX) [6]) | percentage damage caused to the plant, ABUTH (five-point scale) [7] | percentage damage caused to the plant, AMARE (five-point scale) [8] | percentage damage caused to the plant, ECHCG (five-point scale) [9] | percentage damage caused to the plant, IPOHE (five-point scale) [10] | percentage damage caused to the plant, SETFA (five-point scale) (Setaria faberi (SETFA) [11]) | percentage damage caused to the plant, ZEAMX (five-point scale) (Zea mays (ZEAMX) [12]) |
| --- | --- | --- | --- | --- | --- | --- | --- | --- | --- | --- | --- | --- |
| CC(OC(=O)c1nn(-c2ccc(OC(F)(F)F)cc2)c2cccc(S(C)(=O)=O)c2c1=O)C1CC1 (stereo not drawn) [Compound P74, 1-cyclopropylethyl 5-methylsulfonyl-4-oxo-1-[4-(trifluoromethoxy)phenyl]cinnoline-3-carboxylate] | 0 (0=0%) | 5 (5=81-100%) | 4 (4=61-80%) | 0 (0=0%) | 0 (0=0%) | 0 (0=0%) | 1 (1=10-20%) | 1 (1=10-20%) | 4 (4=61-80%) | 0 (0=0%) | 4 (4=61-80%) | 1 (1=10-20%) |
| CCCCCOC(=O)c1nn(-c2ccc(OC(F)(F)F)cc2)c2cccc(S(C)(=O)=O)c2c1=O [Compound P75, penyl 5-methylsulfonyl-4-oxo-1-[4-(trifluoromethoxy)phenyl]cinnoline-3-carboxylate] | 0 (0=0%) | 4 (4=61-80%) | 4 (4=61-80%) | 0 (0=0%) | 0 (0=0%) | 1 (1=10-20%) | 0 (0=0%) | 0 (0=0%) | 3 (3=41-60%) | 0 (0=0%) | 4 (4=61-80%) | 0 (0=0%) |
| CN(C)CCOC(=O)c1nn(-c2ccc(OC(F)(F)F)cc2)c2cccc(S(C)(=O)=O)c2c1=O [Compound P76, 2-(dimethylamino)ethyl 5-methylsulfonyl-4-oxo-1-[4-(trifluoromethoxy)phenyl]cinnoline-3-carboxylate] | 0 (0=0%) | 4 (4=61-80%) | 3 (3=41-60%) | 0 (0=0%) | 1 (1=10-20%) | 0 (0=0%) | 2 (2=21-40%) | 1 (1=10-20%) | 3 (3=41-60%) | 1 (1=10-20%) | 4 (4=61-80%) | 1 (1=10-20%) |
| CCCCCCCOC(=O)c1nn(-c2ccc(OC(F)(F)F)cc2)c2cccc(S(C)(=O)=O)c2c1=O [Compound P77, heptyl 5-methylsulfonyl-4-oxo-1-[4-(trifluoromethoxy)phenyl]cinnoline-3-carboxylate] | 0 (0=0%) | 5 (5=81-100%) | 3 (3=41-60%) | 0 (0=0%) | 0 (0=0%) | 0 (0=0%) | 1 (1=10-20%) | 0 (0=0%) | 3 (3=41-60%) | 0 (0=0%) | 4 (4=61-80%) | 0 (0=0%) |
| C#CCOC(=O)c1nn(-c2ccc(OC(F)(F)F)cc2)c2cccc(S(C)(=O)=O)c2c1=O [Compound P79, prop-2-ynyl 5-methylsulfonyl-4-oxo-1-[4-(trifluoromethoxy)phenyl]cinnoline-3-carboxylate] | 0 (0=0%) | 5 (5=81-100%) | 5 (5=81-100%) | 1 (1=10-20%) | 0 (0=0%) | 1 (1=10-20%) | 1 (1=10-20%) | 0 (0=0%) | 4 (4=61-80%) | 1 (1=10-20%) | 4 (4=61-80%) | 1 (1=10-20%) |
| C=CCOC(=O)c1nn(-c2ccc(OC(F)(F)F)cc2)c2cccc(S(C)(=O)=O)c2c1=O [Compound P80, allyl 5-methylsulfonyl-4-oxo-1-[4-(trifluoromethoxy)phenyl]cinnoline-3-carboxylate] | 0 (0=0%) | 5 (5=81-100%) | 4 (4=61-80%) | 0 (0=0%) | 0 (0=0%) | 1 (1=10-20%) | 1 (1=10-20%) | 0 (0=0%) | 3 (3=41-60%) | 1 (1=10-20%) | 4 (4=61-80%) | 1 (1=10-20%) |
| COC(=O)COC(=O)c1nn(-c2ccc(OC(F)(F)F)cc2)c2cccc(S(C)(=O)=O)c2c1=O [Compound P81, (2-methoxy-2-oxo-ethyl) 5-methylsulfonyl-4-oxo-1-[4-(trifluoromethoxy)phenyl]cinnoline-3-carboxylate] | 0 (0=0%) | 5 (5=81-100%) | 4 (4=61-80%) | 0 (0=0%) | 0 (0=0%) | 0 (0=0%) | 1 (1=10-20%) | 1 (1=10-20%) | 3 (3=41-60%) | 0 (0=0%) | 4 (4=61-80%) | 1 (1=10-20%) |
| CCCCCCCCCOC(=O)c1nn(-c2ccc(OC(F)(F)F)cc2)c2cccc(S(C)(=O)=O)c2c1=O [Compound P82, nonyl 5-methylsulfonyl-4-oxo-1-[4-(trifluoromethoxy)phenyl]cinnoline-3-carboxylate] | 0 (0=0%) | 3 (3=41-60%) | 1 (1=10-20%) | 0 (0=0%) | 0 (0=0%) | 0 (0=0%) | 1 (1=10-20%) | 0 (0=0%) | 1 (1=10-20%) | 1 (1=10-20%) | 0 (0=0%) | 1 (1=10-20%) |
| CS(=O)(=O)c1cccc2c1c(=O)c(C(=O)OCCCCCCCCCc1ccccc1)nn2-c1ccc(OC(F)(F)F)cc1 [Compound P83, 9-phenylnonyl 5-methylsulfonyl-4-oxo-1-[4-(trifluoromethoxy)phenyl]cinnoline-3-carboxylate] | 0 (0=0%) | 0 (0=0%) | 0 (0=0%) | 0 (0=0%) | 0 (0=0%) | 0 (0=0%) | 0 (0=0%) | 0 (0=0%) | 0 (0=0%) | 0 (0=0%) | 0 (0=0%) | 0 (0=0%) |
